Experimental data taken from patent US9980943B2, “Methods of treating muscular dystrophy” (BOARD OF REGENTS OF THE NEVADA SYSTEM OF HIGHER EDUCATION, …, priority 2013, dated 2018).
Read-outs that look alike come from different tables or passages of the source.

Tested on: α7 integrin (LacZ reporter in α7LacZ+/− myoblasts)
Assay: qHTS of the LOPAC library and MLSMR (online screen, α7LacZ+/− myoblasts)
Details: for activation at 0.307 µM / activation at 1.53 µM / activation at 7.66 µM / activation at 38.3 µM / Emax / EC50: Mus musculus, Myoblast; for activation at 0.307 µM: read-out: Activity at 0.307 uM [%] **; for activation at 1.53 µM: read-out: Activity at 1.530 uM [%] **; for activation at 7.66 µM: read-out: Activity at 7.660 uM [%] **; for activation at 38.3 µM: read-out: Activity at 38.30uM [%] **; for EC50: read-out: Fit LogAC50 (converted)
[1] = 48 h, read-out: Fit Infinite Activity [%]

Row | Compound | activation at 0.307 µM (48 h) [%] | activation at 1.53 µM (48 h) [%] | activation at 7.66 µM (48 h) [%] | activation at 38.3 µM (48 h) [%] | Emax [1] [%] | EC50 [µM] | Emax (read-out: Max Response [%]) [%] | Score | Score (Table 8 Compound data)
1 | CNc1nnc(SCC(=O)c2cc(C)n(C3CC3)c2C)s1 [Compound 68] | -11.8 | -22 | 4.46 | 220 | 222 | 12.6 | 220 |  | 
2 | CN(C)c1ccnc2sc(C(N)=O)c(N)c12 [Compound 87] | 20.9 | 26.5 | 69.1 | 86.5 | 87.8 |  | 86.5 |  | 
3 | C=CCN(CC=C)C(=O)c1ccc(OC2CCN(S(=O)(=O)N(C)C)CC2)cc1 [Compound 64] | -6.4 | 3.46 | 95.1 | 129 | 130 | 5.01 | 129 |  | 
4 | COc1cc(NC(=O)CN(C)S(=O)(=O)c2ccc3c(c2)CC(C)N3C(C)=O)cc(OC)c1OC (centres unmarked) [Compound 145] | 0.302 | 0.181 | 15.7 | 70.5 | 70.5 | 10 | 70.5 |  | 
5 | COc1cc(/C=C/CN2CCN(Cc3ccc(C)o3)C(CCO)C2)ccc1O (centres unmarked) [Compound 42] | 20.1 | 0 | 32.1 | 481 | 485 | 14.1 |  |  | 
6 | CCCCS(=O)(=O)N1CCCC(C(=O)NCCc2ccccc2)C1 (centres unmarked) [Compound 111] | 4.12 | 15.4 | 54.6 | 89.9 | 101 | 7.08 | 89.9 |  | 
7 | CCOC(=O)C1=C(NC(=O)c2ccc(OC)c(S(=O)(=O)N3CCCCC3C)c2)Nc2ccccc2N=C1CC (centres unmarked) [Compound 45] | -16.6 | 0.0514 | 18.6 | 414 | 420 | 14.1 | 414 | 47 | 
8 | CNC(=O)/C(=C\c1cccc(Oc2ccccc2)c1)NC(=O)c1ccccc1 [Compound 211] | 0.23 | 11.6 | 43 | 87.9 | 110 |  | 87.9 |  | 
9 | COc1cc(C(C(=O)NC2CCCCC2)N(C(=O)c2snc(C(N)=O)c2N)c2ccc(C)cc2)ccc1O (centres unmarked) [Compound 71] | 0 | 9.63 | 58.8 | 109 | 122 | 7.94 | 109 |  | 
10 | CCc1ccc(Sc2cc(C(=O)NCCN3CCOCC3)c3ccccc3n2)cc1 [Compound 214] | 13.2 | 16.1 | 43.9 | 101 | 108 |  | 101 |  | 
11 | C/N=C(\S)N1CCC(NC(=O)C(Cc2ccc(F)cc2)NC(C)=O)CC1 (centres unmarked) [Compound 82] | 0 | 23.1 | 63.7 | 84.7 | 90 | 3.16 | 84.7 |  | 
12 | CC(=O)c1ccc(N(C(=O)CNC(=O)c2ccco2)C(C(=O)NC2CCCC2)c2ccc(C)o2)cc1 (centres unmarked) [Compound 146] | -20.8 | -20.9 | 0 | 75.5 | 75.5 | 10 | 75.5 |  | 
13 | CCCCC(C(=O)NC1CCCC1)N(C(=O)c1snc(C(N)=O)c1N)c1ccc(C)cc1 (centres unmarked) [Compound 151] | -26.6 | -26 | 2.04 | 63.7 | 65.1 | 10 | 63.7 |  | 
14 | COc1cc(NC(=O)C2C3C=CC(C3)C2C(=O)O)ccc1NC(=O)c1ccccc1 (centres unmarked) [Compound 142] | -17.1 | -18.7 | 16.8 | 68.9 | 71.2 |  | 68.9 |  | 
15 | CC(C(=O)Nc1ccc(C#N)cc1)N(C)CC(=O)Nc1cccc(F)c1 (centres unmarked) [Compound 186] | -37.2 | -17.7 | 15.1 | 37.2 | 48 |  | 37.2 |  | 
16 | O=S(=O)(c1ccccc1)N1CCCC(c2nc(O)c3nnn(Cc4cccc(Cl)c4)c3n2)C1 (centres unmarked) [Compound 161] | -37 | -17.7 | 22.4 | 48.1 | 55 |  | 48.1 |  | 
17 | COCCN1C=C(C(=O)OC)C(c2ccccc2Cl)C(C(=O)OC)=C1 [Compound 123] | 5.12 | 12.1 | 45.1 | 85.5 | 96.9 |  | 85.5 |  | 
18 | O=S(=O)(NCC(c1ccco1)N1CCOCC1)c1ccc(Cl)cc1 (centres unmarked) [Compound 212] | 11.1 | 7.37 | 15.9 | 128 | 129 |  | 128 |  | 
19 | COc1ccc(Cl)cc1NC(=O)CC(=O)Nc1cc(Cl)ccc1OC [Compound 41] | 8.75 | 9.71 | 34.1 | 453 | 457 | 14.1 |  |  | 
20 | COc1cc(/C=C2/C(=N)N3C(SC)=NSC3=NC2=O)ccc1OC(=O)c1ccco1 [Compound 30] | -18.3 | -9.07 | 55.5 | 73.4 | 73.6 | 3.98 |  |  | 
21 | O=C(O)CCCNC(=O)CCn1nnc2ccccc2c1=O [Compound 174] | -21.7 | -16.7 | 13.6 | 74.2 | 83.7 |  | 74.2 |  | 
22 | COc1ccc(-c2csc3ncnc(N4CCN(c5ccccc5[N+](=O)[O-])CC4)c23)cc1 [Compound 94] | 11.5 | 8.66 | 36.5 | 138 | 138 | 10 | 138 |  | 43
23 | COC(=O)C1=NNC2(C)C(=O)N(c3ccc(C)cc3)C(=O)C12 (centres unmarked) [Compound 177] | 1.31 | 0.295 | 16.2 | 71.1 | 71.5 | 10 | 71.1 |  | 
24 | CCCOc1nc(SCCC)nc2c1cnn2-c1ccccc1 [Compound 178] | -21.2 | -11.3 | 18.9 | 64.3 | 85.3 |  | 64.3 |  | 
25 | CN(Cc1c(C(=O)N/N=C/c2cccc(F)c2)nnn1-c1nonc1N)c1ccccc1 [Compound 97] | 1.91 | 1.37 | 59.1 | 79.3 | 79.8 | 5.62 | 79.3 |  | 
